# In US20220313629A1, “TRANSIENT POTENTIAL MELASTATIN 8 (TRPM8) ANTAGONISTS AND RELATED METHODS” (MARSHALL UNIVERSITY RESEARCH CORPORATION, priority 2019, published 2022):
# Target: TRPM8 (Homo sapiens, UniProt Q7Z2W7)
# Assay: Whole-cell patch-clamp electrophysiology, menthol-evoked TRPM8 currents in HEK-293 cells transiently transfected with human TRPM8
# Assay type: cell-based
# Method: HEK-293 Cell culture. Human embryonic kidney (HEK) 293 cells (ATCC CRL-1573) were cultured in growth medium comprising 90% Dulbecco's modified Eagle's medium, 10% fetal bovine serum, 100 U·mL-1 penicillin-streptomycin, and 2 mM L-glutamine (Gibco). Cells were cultured in 35 mm polystyrene dishes (Falcon) at 37° C. in the presence of 5% CO2. Cells were transiently transfected with human TRPM8 in a pIRES2 plasmid containing EGFP as a reporter. This plasmid expresses bicistronic mRNA with an internal ribosome entry site (IRES) positioned between the TRPM8 gene and the fluorescent protein reporter gene such that the reporter is not covalently fused to TRPM8. […]
# Whole-cell patch-clamp electrophysiology. […] Osmolality was measured using a Vapro 5600 vapor pressure osmometer (Wescor). […] Pipettes had resistances of 2-5 MO as measured in the extracellular solution. […] Current response from each cell was measured under each concentration of Compound 14. Only one cell was measured per cover slip to prevent confounding effects of previous exposure to menthol and Compound 14.
# Data analysis. For each cell, current magnitude at each concentration of Compound 14 was normalized by dividing by the maximum current measured at 500 μM menthol and without the antagonist. Normalized currents from six cells were averaged at each concentration of antagonist, and the standard error of the mean was calculated at each point. […]
# Sequence of TRPM8 (Q7Z2W7 whole entry): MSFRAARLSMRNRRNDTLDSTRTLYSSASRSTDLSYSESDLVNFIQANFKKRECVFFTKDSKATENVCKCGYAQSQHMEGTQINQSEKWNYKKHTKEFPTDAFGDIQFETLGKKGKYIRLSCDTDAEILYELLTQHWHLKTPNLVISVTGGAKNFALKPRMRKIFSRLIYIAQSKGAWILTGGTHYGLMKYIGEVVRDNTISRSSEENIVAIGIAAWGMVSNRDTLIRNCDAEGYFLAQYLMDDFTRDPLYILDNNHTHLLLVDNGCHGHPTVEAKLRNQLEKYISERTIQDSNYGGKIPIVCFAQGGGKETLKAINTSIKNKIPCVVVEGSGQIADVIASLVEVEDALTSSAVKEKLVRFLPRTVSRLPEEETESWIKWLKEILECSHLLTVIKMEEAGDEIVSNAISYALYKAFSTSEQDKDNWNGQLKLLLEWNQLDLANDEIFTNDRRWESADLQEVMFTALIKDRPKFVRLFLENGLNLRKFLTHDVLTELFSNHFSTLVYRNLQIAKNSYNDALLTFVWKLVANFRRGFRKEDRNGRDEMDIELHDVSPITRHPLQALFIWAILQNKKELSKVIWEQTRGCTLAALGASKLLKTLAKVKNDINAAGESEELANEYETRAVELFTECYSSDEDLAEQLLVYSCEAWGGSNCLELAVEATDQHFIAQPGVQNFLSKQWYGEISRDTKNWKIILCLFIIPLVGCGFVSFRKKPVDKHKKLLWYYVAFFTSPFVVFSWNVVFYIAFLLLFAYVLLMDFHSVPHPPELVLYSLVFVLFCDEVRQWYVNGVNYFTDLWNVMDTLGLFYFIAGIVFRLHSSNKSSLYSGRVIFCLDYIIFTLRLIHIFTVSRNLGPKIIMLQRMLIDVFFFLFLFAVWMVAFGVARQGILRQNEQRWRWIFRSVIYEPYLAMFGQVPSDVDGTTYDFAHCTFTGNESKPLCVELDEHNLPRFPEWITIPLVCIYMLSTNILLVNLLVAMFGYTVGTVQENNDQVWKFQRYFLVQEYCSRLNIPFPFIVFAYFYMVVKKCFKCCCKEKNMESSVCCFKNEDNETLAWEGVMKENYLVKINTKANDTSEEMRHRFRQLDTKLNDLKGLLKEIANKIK
smiles,measurement,setting,value
"O=C(NC1CCC2(CCCC2)CC1)c1ccc(-c2ccccc2)cc1 [Compound 14, N-(spiro[4.5]decan-8-yl)-[1,1′-biphenyl]-4-carboxamide]",antagonist activity relative to a tryptamine-based antagonist in the same assay,patch clamp,6 fold
same,IC50,"whole-cell patch clamp, +80 mV, 500 μM menthol, n=6 cells, read-out: IC50, inhibition of menthol-evoked TRPM8 currents",64 ± 2 nM
